Laboratory results as given in patent publication US20030055065A1, “Tricyclic amide and urea compounds useful for inhibition of G-protein function and for treatment of proliferative diseases” (priority 1993, published 2003).
Where “and” joins values, the source holds several entries; their conditions need not be identical. Identical values can stand only once. Like-named read-outs stand apart in the source and are kept apart here.

Tests used:
[1] = biological target: T1, farnesyl protein transferase (FPT), partially purified from rat brain (Rattus norvegicus, UniProt Q02293+Q04631); assay: Inhibition of farnesyl protein transferase (transfer of [3H]farnesyl to Ras-CVLS); assay type: biochemical; conditions: for IC50: read-out: FPT IC50
T1 construct: were partially purified from rat brain by ammonium sulfate fractionation followed by Q-Sepharose
T1 sequence (Q02293 whole entry, one chain of several): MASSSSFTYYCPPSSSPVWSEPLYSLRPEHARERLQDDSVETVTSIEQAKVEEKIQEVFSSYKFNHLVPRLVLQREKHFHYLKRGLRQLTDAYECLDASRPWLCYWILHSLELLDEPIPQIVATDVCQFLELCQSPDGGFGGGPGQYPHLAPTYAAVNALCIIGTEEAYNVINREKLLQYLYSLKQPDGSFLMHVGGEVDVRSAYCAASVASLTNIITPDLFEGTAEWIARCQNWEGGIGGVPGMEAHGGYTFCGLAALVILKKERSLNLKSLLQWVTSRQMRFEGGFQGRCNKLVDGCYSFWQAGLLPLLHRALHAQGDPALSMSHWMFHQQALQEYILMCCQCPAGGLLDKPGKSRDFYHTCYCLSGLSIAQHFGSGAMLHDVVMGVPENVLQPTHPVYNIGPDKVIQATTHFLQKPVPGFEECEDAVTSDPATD
Summary of the method: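 Partially purified farnesyl protein transferase with His6-tagged val12-Ha-Ras-CVLS substrate and [3H]farnesyl pyrophosphate, 30 min at room temperature. Stopped with SDS/TCA, precipitated Ras collected on GF/C filters; percent inhibition relative to DMSO vehicle control.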

[2] = biological target: T2, geranylgeranyl protein transferase (GGPT) I (Rattus norvegicus, UniProt P53610+Q04631); assay: Inhibition of geranylgeranyl protein transferase I (Ras-CVLL as acceptor); assay type: biochemical; conditions: enzyme inhibition
T2 construct: were partially purified from rat brain by ammonium sulfate fractionation followed by Q-Sepharose
T2 sequence (P53610 whole entry, one chain of several): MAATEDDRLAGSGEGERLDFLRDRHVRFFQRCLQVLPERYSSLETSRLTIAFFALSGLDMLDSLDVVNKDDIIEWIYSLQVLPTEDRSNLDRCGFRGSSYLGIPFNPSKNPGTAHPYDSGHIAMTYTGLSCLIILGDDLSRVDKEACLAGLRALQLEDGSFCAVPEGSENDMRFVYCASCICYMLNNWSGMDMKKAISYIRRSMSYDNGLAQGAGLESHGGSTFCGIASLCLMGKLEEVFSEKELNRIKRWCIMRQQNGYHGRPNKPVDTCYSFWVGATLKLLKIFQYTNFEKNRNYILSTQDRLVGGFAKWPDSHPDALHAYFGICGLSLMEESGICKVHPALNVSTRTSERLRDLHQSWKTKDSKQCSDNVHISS
From the text: 1. In vitro enzyme assays: Inhibition of farnesyl protein transferase and geranylgeranyl protein transferase.
Both farnesyl protein transferase (FPT) and geranylgeranyl protein transferase (GGPT) I were partially purified from rat brain by ammonium sulfate fractionation followed by Q-Sepharose (Pharmacia, Inc.) anion exchange chromatography essentially as described by Yokoyama et al (Yokoyama, K., et al., (1991), A protein geranylgeranyltransferase from bovine brain: Implications for protein prenylation specificity, Proc. Natl. Acad. Sci USA 88: 5302-5306, the disclosure of which is incorporated herein by reference thereto). Human farnesyl protein transferase was also expressed in E. coli, using cDNA clones encoding both the α and β subunits. The methods used were similar to those published (Omer, C. et al., (1993), Characterization of recombinant human farnesyl protein transferase: Cloning, expression, farnesyl diphosphate binding, and functional homology with yeast prenyl-protein transferases, Biochemistry 32:5167-5176). Human farnesyl protein transferase was partially-purified from the soluble protein fraction of E. coli as described above. […] Two forms of val^12-Ha-Ras protein were prepared as substrates for these enzymes, differing in their carboxy terminal sequence. One form terminated in cysteine-valine-leucine-serine (Ras-CVLS) the other in cystein-valine-leucine-leucine (Ras-CVLL). Ras-CVLS is a substrate for the farnesyl protein transferase while Ras-CVLL is a substrate for geranylgeranyl protein transferase I. The cDNAs encoding these proteins were constructed so that the proteins contain an amino-terminal extension of 6 histidine residues. Both proteins were expressed in Escherichia coli and purified using metal chelate affinity chromatography. The radiolabelled isoprenyl pyrophosphate substrates, [^3H]farnesyl pyrophosphate and [3H]geranylgeranyl pyrophosphate, were purchased from DuPont/New England Nuclear.
The geranylgeranyl protein transferase I assay was essentially identical to the farnesyl protein transferase assay described above, with two exceptions: [^3H]geranylgeranylpyrophosphate replaced farnesyl pyrophosphate as the isoprenoid donor and Ras-CVLL was the protein acceptor.

[3] = tested on: Ras-CVLS processing in COS monkey kidney cells; assay: COS cell assay: Ras-CVLS processing (Western blot); assay type: cell-based; conditions: COS cells, read-out: Inhibition of Ras Processing IC50
Summary of the method: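 COS cells electroporated with Ras-CVLS (farnesyl transferase substrate) cDNA, with drug-containing fresh medium added at 24 h and cells examined at 48 h. TCA-precipitated cellular protein was resolved by SDS gel and immunoblotted with anti-p21 Ras monoclonal and HRP anti-rat IgG to monitor Ras processing.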

[4] = tested on: T24-BAG4 human bladder carcinoma cells expressing an activated H-ras gene; assay: Cell Mat Assay: tumor cell colony inhibition (tIC50); assay type: cell-based; conditions: Homo sapiens, inhibition of tumor cell growth
Summary of the method: (§1)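 Serial compound dilutions added 24 h after planting T24-BAG4 cells onto a mat of normal cells, then 14 d colony growth; monolayers glutaraldehyde-fixed and tumor cells X-Gal stained. tIC50 and mIC50 from microscope counts of colonies, cells per colony and mat cell density.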

[5] = tested on: Normal human HEPM fibroblasts; assay: Cell Mat Assay: density of mat cells (mIC50); assay type: cell-based; conditions: Homo sapiens, Fibroblast
Summary of the method: as §1

[6] = Ras-CVLS farnesylation, partially purified rat brain FPT

SMILES | melting point | IC50 [1, 6] | IC50 [2] [µM] | IC50 ([3]; Primates, COS) [µM] | IC50 [4] [µM] | IC50 [5] [µM] | also measured
O=C(Nc1ccncc1)N1CCC(=C2c3ccc(Cl)cc3CCc3cc(Cl)ccc32)CC1 [Example 423] | 206.4 to 207 °C | – | – | – | – | – | FPT inhibition at the concentration in parentheses ([1]; (4.3) μM): 35 (4.3); IC50 ([1]; enzyme inhibition): > 4.3 µM
O=C(NCc1ccccc1)c1ccc2c(c1)CCc1cccnc1C2=C1CCN(C(=O)Cc2ccncc2)CC1 [Example 436] | 118 to 120 °C | 17 µM | – | – | – | – | –
O=C(Cc1cc[n+]([O-])cc1)N1CCC(C2c3ccc(Cl)cc3CCc3cccnc32)CC1 (centres unmarked) [Example 234] | – | 0.33 µM | > 43 | 2.2 | 3.1 | > 50 | –
O=C(Cc1ccncc1)N1CCC(=C2c3ccc(Cl)cc3CCc3cc(Br)c(O)nc32)CC1 [Example 415] | 150 °C (dec.) | – | – | – | – | – | IC50 ([1]; enzyme inhibition): > 3.8 µM
O=C(Nc1ccncc1)N1CCC(C2c3ccc(Cl)cc3CCc3cccnc32)CC1 (centres unmarked) [Example 314] | – | 0.83 µM | > 46 | 3 | 4 | > 50 | –
Cn1cc(Br)c(=O)c2c1C(=C1CCN(C(=O)Cc3ccncc3)CC1)c1ccc(Cl)cc1CC2 [Example 416] | 142 °C (dec.) | 3.7 µM | – | – | – | – | –
O=C(Cc1ccnc(Br)c1)N1CCC(=C2c3ccc(Cl)cc3CCc3cc(Br)cnc32)CC1 [Example 506] | 134 to 136.1 °C | – | – | – | – | – | –
O=C(Cc1ccccc1[N+](=O)[O-])C(=O)N1CCC(=C2c3ccc(Cl)cc3CCc3cccnc32)CC1 [Example 220] | 282 to 285 °C | 2.49 µM | – | – | – | – | –
O=C(C(CO)c1ccccc1)N1CCC(=C2c3ccc(Cl)cc3CCc3cccnc32)CC1 (centres unmarked) [Example 41, 8-chloro-1-[ -(2-hydroxy-1-phenylethylcarbonyl)-4-piperidylidene]-6,11-dihydro-5H-benzo[5,6]-cyclohepta-[1,2-b]pyridine] | 92.7 to 93 °C | 6.1 µM | – | – | – | – | –
CC(C)(C)OC(=O)NCCSc1ccnc2c1CCc1cc(Cl)ccc1C2=C1CCN(C(=O)Cc2cccnc2)CC1 [Example 260] | 59.8 to 63.5 °C | 9.9 µM | – | – | – | – | –
O=C(c1ccncc1)N1CCC(=C2c3ccc(Cl)cc3CCc3cccnc32)CC1 [Example 15] | 176 to 178 °C | 4.7 µM | – | – | – | – | –
CN1C(=O)C(CCC(=O)N2CCC(=C3c4ccc(Cl)cc4CCc4cccnc43)CC2)NC1=S (centres unmarked) [Example 23] | 205 to 207 °C | 6 µM | – | – | – | – | –
O=C(Cc1ccncc1)N1CCC(C2c3ccc(Cl)cc3C=Cc3cc(Br)cnc32)CC1 (centres unmarked) [Example 400-G] | – | 0.024 µM | > 39 | 0.58 | 1.6 | > 25 | IC50 ([1]; enzyme inhibition): 0.024 µM
O=C(Nc1ccccc1)N1CCC(=C2c3ccc(Cl)cc3CCc3c2ncc(Br)c3Cl)CC1 [Example 414] | 125.6 °C (dec.) | – | – | – | – | – | IC50 ([1]; enzyme inhibition): 0.9 µM
O=C(Cc1ccc[n+]([O-])c1)N1CCC(=C2c3ccc(Cl)cc3CCc3ccc[n+]([O-])c32)CC1 [Example 231] | 105 to 107 °C | – | – | – | – | – | inhibition at 12 µM ([1]; at 12 μM): 44%
CCc1cc2c(cc1Cl)C=Cc1cccnc1C2C1CCN(C(=O)Cc2cccnc2)CC1 (centres unmarked) [Example 270] | 67.2 to 69.8 °C | 2.8 µM | – | – | – | – | –
O=C(O)c1ccc2c(c1)CCc1cccnc1C2=C1CCN(C(=O)Cc2ccncc2)CC1 [Example 435] | 238 to 240 °C | – | – | – | – | – | IC50 ([1]; enzyme inhibition): 7 µM
O=C(Nc1cccnc1)N1CCC(=C2c3ccc(Cl)cc3CCc3cccnc32)CC1 [Example 292] | – | 0.99 µM | > 44 | 6.8 | 6.25 | > 50 | –
O=C(Cc1ccc[n+]([O-])c1)N1CCC(C2c3ccc(Cl)cc3C=Cc3cc(Br)cnc32)CC1 (centres unmarked) [Example 400-D] | – | 0.21 µM | > 38 | 2 | 4 | > 25 | IC50 ([1]; enzyme inhibition): 0.21 µM

SMILES | melting point | IC50 [1, 6] | IC50 [2] [µM] | IC50 ([3]; Primates, COS) [µM] | IC50 [4] [µM] | IC50 [5] [µM] | also measured
O=C(c1cc[n+]([O-])cc1)N1CCC(=C2c3ccc(Cl)cc3CCc3cccnc32)CC1 [Example 22] | 228 °C (dec.) | 6 µM | – | – | – | – | –
O=C(C(=O)N1CCC(=C2c3ccc(Cl)cc3CCc3cccnc32)CC1)c1c[nH]c2ccccc12 [Example 219] | 192 to 193 °C | 6.64 µM | – | – | – | – | –
O=C(Cc1cc[n+]([O-])cc1)N1CCC(=C2c3ccc(Cl)cc3CCc3cccnc32)CC1 [Example 227] | 128 to 130 °C | – | – | – | – | – | –
O=C(Cc1ccncc1)N1CCC(=C2c3ccc(Cl)cc3CCc3cc([N+](=O)[O-])cnc32)CC1 [Example 358] | 111.3 to 112.2 °C | 0.57 µM | – | – | – | – | –
O=C(Cc1cc[n+]([O-])cc1)N1CCC(C2c3ccc(Cl)cc3C=Cc3cc(Br)cnc32)CC1 (centres unmarked) [Example 400-C] | – | 0.03 µM | > 38 | 0.7 | < 1.6 | > 25 | IC50 ([1]; enzyme inhibition): 0.03 µM
O=C(OC(C(=O)N1CCC(=C2c3ccc(Cl)cc3CCc3cccnc32)CC1)c1ccccc1)c1ccncc1 (centres unmarked) [Example 298] | – | 4.58 µM | > 35 | > 9 | > 50 | > 50 | –
O=C(Cc1cccnc1)N1CCC(=C2c3ccc(Cl)cc3CCc3c(On4nnc5ccccc54)ccnc32)CC1 [Example 251] | 120 to 122 °C | 0.76 µM | – | 8.1 | – | – | –
O=C(Nc1ccccc1)N1CCC(C2c3ccc(Cl)cc3CCc3cccnc32)CC1 (centres unmarked) [Example 312] | – | 0.9 µM | > 46 | 3.8 | 12.5 | > 50 | –
O=C(Cc1cccnc1)N1CCN(C2c3ccc(Cl)cc3CCc3cc(Br)cnc32)CC1 (centres unmarked) [Example 351] | – | 0.17 µM | 1000 | 2.8 | 6.25 | 25 | –
O=C(Nc1ccccc1)N1CCC(=C2c3ccc(Cl)cc3CCc3cccnc32)CC1 [Example 293] | – | 1.76 µM and 0.47 µM | > 40 | > 11.1 | 12.5 | > 50 | IC50 [3]: 6.5 µM
O=C(Cc1ccncc1)N1CCC(=C2c3cc(Cl)c(Cl)cc3CCc3cccnc32)CC1 [Example 311] | – | 0.61 µM | 41.3 | 9.5 | 10 | > 50 | –
O=C(Nc1cccnc1)N1CCC(C2c3ccc(Cl)cc3CCc3cccnc32)CC1 (centres unmarked) [Example 313] | – | 0.97 µM | > 46 | 1.5 | 6.25 | > 50 | –
O=C1CCC(C(=O)N2CCC(=C3c4ccc(Cl)cc4CCc4cccnc43)CC2)=NN1 [Example 35] | 190 to 193 °C | 9.9 µM | – | – | – | – | –
CC(C)(C(=O)N1CCC(C2c3ccc(Cl)cc3CCc3cccnc32)CC1)c1ccccc1 (centres unmarked) [Example 316] | – | 1.26 µM | > 43 | 18.4 | 25 | > 50 | –
O=C(Cc1ccncc1)N1CCC(=C2c3ccc(Cl)cc3CCc3c(On4nnc5ccccc54)ccnc32)CC1 [Example 249] | 98.6 to 101.6 °C | 0.64 µM | – | – | – | – | –
Cc1cnc2c(c1)CCc1cc(Cl)ccc1C2=C1CCN(C(=O)Cc2cccnc2)CC1 [Example 303] | – | 0.55 µM | > 43 | 3.4 | 8 | > 50 | –
O=C(Cc1cc[n+]([O-])cc1)N1CCC(C2c3ccc(Cl)cc3CCc3ccc[n+]([O-])c32)CC1 (centres unmarked) [Example 238] | 85 to 85.6 °C | – | – | – | > 50 | > 50 | inhibition at 4 µM ([1]; at 4 μM): 26%
O=C(Nc1ccc2c(c1)CCc1cccnc1C2=C1CCN(C(=O)Cc2ccncc2)CC1)OCc1ccccc1 [Example 437] | 132.8 to 133.7 °C | – | – | – | – | – | FPT inhibition at the concentration in parentheses ([1]; (11) μM): 36 (11)
